In patent US6793914B2, “Anti-microbial compositions” (Unilever Home & Personal Care USA, division of Conopco, Inc., priority 2000, dated 2004):
Read-outs that look alike come from different tables or passages of the source.

Tests used:
[1] = system: S. epidermidis; assay: Anti-Microbial Test 2: in vitro growth inhibition by chelators (optical density at 600 nm); type: cell-based, Staphylococcus epidermidis (axillary isolate); details: chelator 5×10^−5 mol.dm^−3 in semi-synthetic medium pH 6.7, 16 hours at 37° C., relative to control medium
Experimental: The chelators indicated in Table 4 were subjected to the following in vitro test for anti-microbial activity against Staphylococcus Epidermididis.
An axillary isolate of S. epidermidis was grown overnight in 100 ml of tryptone soy broth (TSB, ex Oxoid Ltd.). 10 ml of this culture was taken and subjected to centrifugation. The separated cells were re-suspended in 10 ml of phosphate-buffered saline and the centrifugation procedure repeated. The washed cells were re-suspended in 10 ml of phosphate-buffered saline to give the inoculum.
100 ml of semi-synthetic medium (SSM) [containing (NH4)2SO4 (0.066 g), MgSO4.7H2O (0.012 g), KCl (0.1 g), KH2PO4 (0.27 g), Na2HPO4 (1.43 g), Thiamin (0.1 mg), Biotin (0.05 mg), Peptone P (0.05 g), Glucose (2.0 mmole)] was sterilised by autoclaving at 121° C. for 20 minutes. After sterilisation, the pH was adjusted to 6.7 with HCl to give the control medium. The chelator-containing test media were prepared in a similar manner, the chelator being introduced at a concentration of 5×10^−5 mol.dm^−3, before the pH adjustment with HCl.
100 μl of the inoculum was introduced into each of the test media and the control medium. The cultures were incubated at 37° C. (with agitation at 200 rpm) for 16 hours. After this time, the optical density of the cultures were measured at 600 nm to determine the extent of bacterial growth. By comparing the optical density of the culture in the presence of chelating agent to that of the control, the percentage inhibition of growth was established for each of the chelators. (Optical density measurements were made on 1 in 4 dilutions of the cultures with 0.9% (w/v) saline, using 1 cm path length cuvettes, on a Pharmacia Biotech Ultrospec 200 Spectrophotometer.)

[2] = cited from earlier work; for Log10K (iron (III) binding constant): fully deprotonated chelator, independent of pH
[3] = system: Staphylococcus epidermidis; details: cited from earlier work
[4] = literature values, 80% or greater reduction in growth over 16 to 24 hours at 37° C.

SMILES	Inhibition of growth (%) [1] [%]	Log10K (iron (III) binding constant) [2]	iron (III) binding constant ([2]; Critical Stability Constants, Martell and Smith, 1974)	MIC [3, 4]	MIC ([3]; stated by contrast, no source given)
O=C(O)CN(CCN(CC(=O)O)CC(=O)O)CCN(CC(=O)O)CC(=O)O [DTPA, diethylenetriaminepentaacetic acid]	>70	28.6			
O=C(O)CC(NCCNC(CC(=O)O)C(=O)O)C(=O)O (mixture of isomers) [EDDS, N,N-ethylenediaminedisuccinic acid, reference compound]	18	22.0	10^22		
O=C(O)CN(CCN(CCN(CC(=O)O)CC(=O)O)CC(=O)O)CCN(CC(=O)O)CC(=O)O [TTHA, triethylenetetraaminehexaacetic acid]	>70	26.8			
Oc1cc(Cl)ccc1Oc1ccc(Cl)cc1Cl [triclosan, 2′,4,4′-trichloro,2-hydroxy-diphenyl ether]				0.01 to 10 µg/mL	
CCO [ethanol]					greater than 1 mg.ml^−1
O=C(O)CN(CCN(CC(=O)O)CC(=O)O)CC(=O)O [EDTA, ethylenediaminetetraacetic acid]	>70	25.1			
O=C(O)C(NCCNC(C(=O)O)c1ccccc1O)c1ccccc1O (centres unmarked) [EDDHA, N,N′-ethylenebis[2-(2-hydroxyphenyl)glycine]]	>70	35.5			
O=C(O)CN(CCOCCOCCN(CC(=O)O)CC(=O)O)CC(=O)O [EGTA, Ethyleneglycol-O,O′-bis-(2-aminoethyl)-N,N,N′,N′-tetraacetic acid, reference compound]	21	20.5			
CC(C)=CCCC(C)=CCCC(C)=CCO [farnesol, 3,7,11-trimethyldodeca-2,6,10-trienol]				ca. 25 μg.ml^−1	
O=C(O)CN(CC(=O)O)CC(=O)O [NTA, Nitrilotriacetic acid, reference compound]	6	15.9			
O=C(O)CN(CC(=O)O)[C@@H]1CCCC[C@H]1N(CC(=O)O)CC(=O)O (relative stereo) [CDTA, trans-1,2-diaminocyclohexane-N, N,N′,N′-tetraacetic acid]	>70	28.05			
